Laboratory results taken from PMC8175350, “Drug repurposing screens identify chemical entities for the development of COVID-19 interventions” (Nature Communications, 2021).
pEC50: −log10 of the molar value. Values joined by “and” are separate entries in the source; they are usually repeats but may differ in a detail not shown here. Equal values may be shown once. Read-outs that look alike come from different tables or passages of the source.

Key:
[1] = system: Calu-3 cells; conditions: read-out: Calu-3 cell count EC50 GeoMean
[2] = system: Calu-3 cells
[3] = system: SARS-CoV-2; assay type: cell-based
[4] = system: SARS-CoV-2; assay: microbe, parasite or virus in culture; assay type: cell-based; conditions: for SARS-CoV-2 % infected cells: 10 µM after 1 h infection; for TOA: HeLa-ACE2, replicate wells n=1-3
[5] = system: HeLa-ACE2 cells; assay: Uninfected HeLa-ACE2 24 h live/dead cytotoxicity counter screen; assay type: cell-based, human; conditions: for cytotox: HeLa-ACE2, replicate wells n=1-3
[6] = as above; assay type: cell-based, human; conditions: human, uninfected HeLa-ACE2 cells, geomean; read-out: uninfected HeLa-ACE2 cytotoxicity CC50
[7] = system: HeLa-ACE2 cells; assay: Total cell count in the HeLa-ACE2 TOA (time of addition) assay; assay type: cell-based, human; conditions: Homo sapiens, HeLa-ACE2; read-out: HeLa-ACE2 TOA cell count EC50 GeoMean
[8] = system: SARS-CoV-2; assay: microbe, parasite or virus in culture; assay type: cell-based; conditions: for %infected: Calu-3, replicate wells n=1, n=3
[9] = system: SARS-CoV-2; assay: microbe, parasite or virus in culture; assay type: cell-based; conditions: for %infected: replicate wells n=1-3
[10] = system: HeLa-ACE2 cells; assay: cells; conditions: Homo sapiens
[11] = system: Calu-3 cells; assay: cells; conditions: Homo sapiens, Calu-3, 48 h, read-out: Calu-3 cell count Sinf Average
[12] = in vitro; conditions: human, Calu-3 uninfected cytotoxicity CC50 GeoMean

Cc1cccc(/C=N/Nc2cc(N3CCOCC3)nc(OCCc3ccccn3)n2)c1 [Apilimod]
pEC50 [1]: < 5.00
uninfected Calu-3 CC50 [2]: > 22.719 ×÷ 1.728 (n=4) μM
Calu-3 uninfected cytotoxicity Sinf Average ([2]; human, 48 h): -100%
effect on viral replication in ALI-HBECs [3]: did not
SARS-CoV-2 % infected cells ([4]; 4:00:00 post infection): 0.1789% and 0.1674% and 0.3723%
SARS-CoV-2 % infected cells ([4]; 5:00:00): 0.5955% and 0.5104% and 0.3072%
SARS-CoV-2 % infected cells ([4]; 6:00:00): 15.0073% and 13.3408% and 11.3931%
SARS-CoV-2 % infected cells ([4]; 7:00:00): 26.4613% and 25.6934% and 26.6142%
SARS-CoV-2 % infected cells ([4]; 8:00:00): 25.5362% and 27.3903% and 25.8074%
SARS-CoV-2 % infected cells ([4]; 10:00:00): 26.7887% and 26.2316% and 26.281%
SARS-CoV-2 % infected cells ([4]; 11:00:00): 30.9861% and 29.9763% and 30.0495%
SARS-CoV-2 % infected cells ([4]; 12:00:00): 30.3761% and 30.6313% and 31.3141%
SARS-CoV-2 % infected cells ([4]; 24:00:00): 17.8372% and 19.3932% and 18.4264%
activity when treatment was initiated at 1 hpi ([4]; HeLa-ACE2, 10 µM): Loss of activity
TOA ([4]; concentration log[M] -5.61909): -9.8778 and -6.262 and 0.3048 and -11.9309 and -26.5472 and -5.999 and -10.1028 and 0.08491 and -22.8314
TOA ([4]; concentration log[M] -6.09621): 1.8452 and 11.477 and 4.5258 and -10.0091 and -14.0586 and -2.797 and -23.1834 and -27.6557 and -36.518
TOA ([4]; concentration log[M] -6.57334): -3.994 and -3.466 and -5.79 and -4.984 and -4.372 and -2.992 and -21.4509 and 1.122 and -26.1046
TOA ([4]; concentration log[M] -7.05046): -6.181 and -4.5978 and -2.954 and -15.6715 and -7.849 and -0.2917 and -3.649 and -3.511 and -18.2837
TOA ([4]; concentration log[M] -7.52758): 6.077 and -0.625 and 10.6098 and -1.822 and 4.214 and -1.579 and 5.171 and 1.731 and -77.382
TOA ([4]; concentration log[M] -8.0047): 2.779 and 3.019 and 8.825 and -4.236 and -3.9816 and -0.9799 and 1.304 and -2.325 and -36.3674
TOA ([4]; concentration log[M] -8.48182): 7.953 and 7.587 and 8.026 and -5.856 and -0.7172 and 2.883 and 9.017 and -1.346 and -21.1061
TOA ([4]; concentration log[M] -8.95894): 0.4128 and 0.7327 and 13.745 and -6.2 and 7.839 and 1.622 and 7.708 and 2.325 and 1.297
pEC50 ([4]; Severe acute respiratory syndrome coronavirus 2, HeLa-ACE2, HeLa-ACE2, fixed 10 hpi, geomean, read-out: CoV-2 TOA EC50): < 5.62
pEC50 ([4]; read-out: HeLa-ACE2 TOA CoV-2 EC50 GeoMean): < 5.02
cytotox ([5]; concentration log[M] -5): -15.1899 and -14.2304 and -15.9372 and -48.9424 and -19.1078 and -64.1429 and -33.3149 and -48.2124 and -41.1568
cytotox ([5]; concentration log[M] -5.47712): -17.5527 and -25.9243 and -24.6903 and -15.9737 and -27.2862 and -50.2857 and -23.1323 and -17.6598 and -11.2347
cytotox ([5]; concentration log[M] -5.95424): -21.6878 and -13.7145 and -16.6804 and -1.094 and -5.874 and -20.5714 and -18.1516 and -18.9599 and -15.1279
cytotox ([5]; concentration log[M] -6.43136): -15.6962 and -19.7334 and -18.8274 and -9.409 and -6.171 and -21.1429 and -10.736 and -20.585 and -14.4605
cytotox ([5]; concentration log[M] -6.90849): -10.4641 and -3.052 and -4.5417 and -0.2188 and 4.684 and -6.286 and -9.519 and -8.4507 and -3.003
cytotox ([5]; concentration log[M] -7.38561): -11.3924 and -4.944 and -1.156 and 4.012 and 4.981 and -8.571 and -7.637 and -6.609 and -5.006
cytotox ([5]; concentration log[M] -7.86273): 2.7 and 20.6793 and 5.12 and -0.3647 and 26.8401 and -1.429 and 8.744 and -0.2167 and 1.335
cytotox ([5]; concentration log[M] -8.33985): 2.785 and -0.6449 and 6.028 and -5.1787 and 6.3197 and -9.571 and 2.435 and -18.4182 and -5.673
HeLa-ACE2 uninfected cytotoxicity Sinf Average ([5]; human, uninfected HeLa-ACE2 cells, 24 h): -100%
CC50 ([5]; read-out: HeLa-ACE2 uninfected cytotoxicity CC50 GeoMean): > 27.8 µM
CC50 at 24 h [6]: > 11.5 µM
pEC50 [7]: < 5.02
%infected ([8]; concentration log[M] -5.00096): -58.2494% and -10.7285% and -2.646% and 11.3057% and -47.5294% and -51.353%
%infected ([8]; concentration log[M] -5.47808): -10.4468% and 0.966% and 9.424% and 3.404% and -12.1011% and -29.1583%
%infected ([8]; concentration log[M] -6.08014): 2.91% and 6.263% and 12.1167% and 11.1729% and -9.57% and -12.4389%
%infected ([8]; concentration log[M] -6.42922): 21.192% and -5.066% and 8.086% and -7.067% and 14.7327% and 9.4894%
%infected ([8]; concentration log[M] -6.90623): 6.025% and 8.588% and -2.01% and -3.119% and -8.7% and -28.761%
%infected ([8]; concentration log[M] -7.50836): -9.733% and 6.842% and -19.0732% and 2.18% and 27.3224% and 13.8795%
%infected ([8]; concentration log[M] -7.85886): -0.02646% and -15.3004% and -8.282% and -4.911% and 23.6525% and 32.9983%
%infected ([8]; concentration log[M] -8.33602): -3.111% and 7.385% and 13.7435% and 0.4251% and 25.7217% and 25.5685%
Emax ([8]; Severe acute respiratory syndrome coronavirus 2, Calu-3, 48 h, read-out: Calu-3 CoV-2 Sinf Average): 100%
pEC50 ([8]; read-out: Calu-3 CoV-2 EC50 GeoMean): < 5.03
Calu-3 SI ([8]; selectivity index, uninfected Calu-3 CC50 / SARS-CoV-2 EC50): > 2.42
increase in EC50 from MOI = 0.09 to MOI = 2.2 ([9]; HeLa-ACE2): 3.7 fold
pEC50 ([9]; HeLa-ACE2, geomean, read-out: SARS-CoV-2 EC50): 7.95
EC50 ([9]; HeLa-ACE2, individual values of 9 independent experiments, read-out: EC50 (µM), Fig 1c): 32 nM and 10 nM (2×) and 9 nM (3×) and 6 nM (2×) and 35 nM
%infected ([9]; HeLa-ACE2, concentration log[M] -5.61909): -89.9366% and -97.9564% and -96.6883% and -98.5854% and -99.176% and -97.4315% and -98.076% and -88.0351% and -79.0377%
%infected ([9]; HeLa-ACE2, concentration log[M] -6.09621): -87.038% and -98.4457% and -97.9148% and -98.877% and -98.5692% and -99.1064% and -97.5527% and -92.9215% and -87.0799%
%infected ([9]; HeLa-ACE2, concentration log[M] -6.57334): -75.6225% and -96.1764% and -98.2769% and -98.0074% and -97.3703% and -99.7483% and -98.3422% and -89.6186% and -88.4431%
%infected ([9]; HeLa-ACE2, concentration log[M] -7.05046): -82.6962% and -96.6541% and -97.5624% and -97.8117% and -96.6757% and -95.0973% and -96.8567% and -85.1569% and -75.3432%
%infected ([9]; HeLa-ACE2, concentration log[M] -7.52758): -73.6156% and -84.2045% and -91.7586% and -85.2086% and -88.488% and -83.6715% and -88.6894% and -80.6843% and -66.0801%
%infected ([9]; HeLa-ACE2, concentration log[M] -8.0047): -72.126% and -55.1215% and -37.7284% and -49.8809% and -50.2572% and -55.8328% and -53.8485%
Emax ([9]; Severe acute respiratory syndrome coronavirus 2, HeLa-ACE2, 24 h, read-out: HeLa-ACE2 CoV-2 Sinf Average): 93%
pEC50 ([9]; Severe acute respiratory syndrome coronavirus 2, HeLa-ACE2, HeLa-ACE2, MOI 0.09, read-out: EC50): 8.14
pEC50 ([9]; Severe acute respiratory syndrome coronavirus 2, HeLa-ACE2, HeLa-ACE2, MOI 0.26, read-out: EC50): 7.87
pEC50 ([9]; Severe acute respiratory syndrome coronavirus 2, HeLa-ACE2, HeLa-ACE2, MOI 0.51, read-out: EC50): 7.73
pEC50 ([9]; Severe acute respiratory syndrome coronavirus 2, HeLa-ACE2, HeLa-ACE2, MOI 1.1, read-out: EC50): 7.71
pEC50 ([9]; Severe acute respiratory syndrome coronavirus 2, HeLa-ACE2, HeLa-ACE2, MOI 2.2, read-out: EC50): 7.57
pEC50 ([9]; Severe acute respiratory syndrome coronavirus 2, HeLa-ACE2, HeLa-ACE2, geomean, read-out: SARS-CoV-2 EC50): 7.96
pEC50 ([9]; Severe acute respiratory syndrome coronavirus 2, HeLa-ACE2, detail column, read-out: HeLa-ACE2 CoV-2 EC50 GeoMean): > 8.19
Emax ([9]; Severe acute respiratory syndrome coronavirus 2, HeLa-ACE2, of uninfected cells at the highest effective concentrations, read-out: maximal efficacy): 85 to 90%
HeLa-ACE2 SI ([9]; selectivity index, uninfected HeLa-ACE2 CC50 / SARS-CoV-2 EC50): > 4353.33
Emax ([10]; HeLa-ACE2, 24 h, read-out: HeLa-ACE2 cell count Sinf Average): 100%
pEC50 ([10]; HeLa-ACE2, read-out: cell count in infection assay EC50, HeLa-ACE2, geomean, ^↑ = increasing dose-response curve): < 5.62
Emax [11]: 100%
CC50 at 48 h [12]: > 22.7 µM
